# Laboratory results from US7745656B2, “Stable no-delivering compounds” (Duke University, priority 1998, dated 2010).
# System: E. coli cells (pTC 190)
# Assay: Bacteriostatic test: nitrosylated compound solution sprayed onto E. coli culture plates
# Type: cell-based
# Procedure: Nitrosated 3-mercapto-1,2-propanediol was prepared with TBN bed in the Example 1. The nitrosylated compound was dissolved in 10 mL of deionized water (0.16 M) that had been passed through a CHELEX 100 column and bubbled with argon for 30 minutes. The resulting solution was red.
# E. coli cells (pTC 190) were plated onto the culture plates and grown overnight at 40° C. The E. coli cells contained a plasmid encoding for ampicillin resistance. The solution was then sprayed onto a culture plate (LB/Amp/Glucose).
# This plate was then sprayed with the nitrosylated compound solution at the 24th hour.
structure (smiles),measurement,setting,value
"O=NSCC(O)CO (stereo not drawn) [nitrosylated 3-mercapto-1,2-propanediol]",Bacterial growth on culture plate sprayed with the compound solution,"0.16 M in deionized water, compound prepared with TBN, LB/Amp/Glucose plate, read after 24 hours","growth of a few colonies, all localized on one side of the plate"
same,"Bacterial growth on plate with an established E. coli lawn, sprayed at the 24th hour","0.16 M solution sprayed on a continuous lawn, read after another 24 hours",lawn of colonies that was approximately as dense as prior to application
same,Overall antibacterial result,conclusion of Example 3,bacteriostatic
